Reference: patent US20250051347A1, “BIFUNCTIONAL CHIMERIC HETEROCYCLIC COMPOUND AND USE THEREOF AS ANDROGEN RECEPTOR DEGRADER” (Hinova Pharmaceuticals, Inc., priority 2021, published 2025)
Where two headings read alike, the source gives them in different places.

Legend:
[1] = test system: 22RV1 cells
[2] = target: T1, androgen receptor (AR) splicing variant AR-v7 (Homo sapiens, UniProt P10275); assay: Degradation activity on androgen receptor splicing variant AR-v7 in 22RV1 cells (ELISA); assay type: cell-based; conditions: AR-v7 degradation in 22RV1 cells, 48 h, class symbols
T1 construct: The degradation activity of compounds on AR-v7 in 22RV1 cells; host or cells: 22RV1 cells
T1 sequence (P10275 1-644 isoform P10275-3): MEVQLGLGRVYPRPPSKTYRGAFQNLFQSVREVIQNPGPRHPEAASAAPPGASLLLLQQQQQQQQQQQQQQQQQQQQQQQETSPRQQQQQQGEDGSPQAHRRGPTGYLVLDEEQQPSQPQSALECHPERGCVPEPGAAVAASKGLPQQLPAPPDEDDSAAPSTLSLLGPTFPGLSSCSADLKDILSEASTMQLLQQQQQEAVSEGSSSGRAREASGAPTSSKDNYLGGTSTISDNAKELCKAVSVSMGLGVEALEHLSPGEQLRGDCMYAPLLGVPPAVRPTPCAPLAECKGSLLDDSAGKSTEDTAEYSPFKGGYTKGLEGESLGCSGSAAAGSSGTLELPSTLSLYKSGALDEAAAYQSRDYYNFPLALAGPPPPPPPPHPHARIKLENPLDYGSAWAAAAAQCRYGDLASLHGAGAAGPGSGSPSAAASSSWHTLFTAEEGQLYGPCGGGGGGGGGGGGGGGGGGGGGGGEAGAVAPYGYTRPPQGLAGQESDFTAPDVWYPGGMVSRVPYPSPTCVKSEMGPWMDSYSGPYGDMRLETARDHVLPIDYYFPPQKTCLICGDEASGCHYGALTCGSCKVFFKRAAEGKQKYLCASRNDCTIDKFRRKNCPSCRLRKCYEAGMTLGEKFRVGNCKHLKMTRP

[3] = Homo sapiens, 22Rv1, 144 h, read-out: 22RV1 IC50 (nM), 22RV1 cells, 6 days culture, CCK-8, OD 450 nm

SMILES | IC50 [1, 3] [nM] | DC50 [2] [nM] | IC50 ([1]; read-out: 22RV1 IC50, 22RV1 cells, 6 days culture, CCK-8, OD 450 nm) [nM]
COc1nccc(COc2ccc(C(C)(C)c3ccc(O[C@H]4C[C@H](Nc5ccc6c(c5)C(=O)N(C5CCC(=O)NC5=O)C6=O)C4)cc3)cc2)n1 (some centres unmarked) [Example 449, 2-(2,6-dioxopiperidin-3-yl)-5-(((1r,3r)-3-(4-(2-(4-((2-methoxypyrimidin-4-yl)methoxy)phenyl)propan-2-yl)phenoxy)cyclobutyl)amino) isoindolin-1,3-dione] | 10 | 11 to 100 | 
CC(=O)c1ncc(Oc2ccc(C(C)c3ccc(O[C@H]4C[C@H](Nc5ccc6c(c5)C(=O)N(C5CCC(=O)NC5=O)C6=O)C4)cn3)cc2)cn1 (some centres unmarked) [Example 220] | 8 | < 10 | 
CCC(CC)(c1ccc(Oc2cnc(C(C)O)nc2)cc1)c1ccc(O[C@H]2C[C@H](Nc3ccc4c(c3)C(=O)N(C3CCC(=O)NC3=O)C4=O)C2)cc1 (some centres unmarked) [Example 131] | 4 | < 10 | 
CC(C)(c1ccc(OCc2ccnc(-c3nnco3)n2)cc1)c1ccc(O[C@H]2C[C@H](Nc3ccc4c(c3)C(=O)N(C3CCC(=O)NC3=O)C4=O)C2)cc1 (some centres unmarked) [Example 468, 5-(((1r,3r)-3-(4-(2-(4-((2-(1,3,4-oxadiazol-2-yl)pyrimidin-4-yl)methoxy)phenyl)propan-2-yl)phenoxy)cyclobutyl)amino)-2-(2,6-dioxopiperidin-3-yl)isoindolin-1,3-dione] | 5 | < 10 | 
CCC(CC)(c1ccc(Oc2ccc(-c3noc(C)n3)nn2)cc1)c1ccc(O[C@H]2C[C@H](Nc3ccc4c(c3)C(=O)N(C3CCC(=O)NC3=O)C4=O)C2)cc1 (some centres unmarked) [Example 527] | 3 | < 10 | 
CC(C)(c1ccc(OCc2ccnc(-n3cnnc3)n2)cc1)c1ccc(O[C@H]2C[C@@H](Nc3ccc4c(c3)C(=O)N(C3CCC(=O)NC3=O)C4=O)C2)cc1 (some centres unmarked) [Example 461] | 11 | < 10 | 
CC(C)(c1ccc(Oc2ncc(N3CC4(COC4)C3)cn2)cc1)c1ccc(O[C@H]2C[C@H](Nc3ccc4c(c3)C(=O)N(C3CCC(=O)NC3=O)C4=O)C2)cc1 (some centres unmarked) [Example 311] | 18 | < 10 | 
CC(C)(c1ccc(NC2CC(Nc3ccc4c(c3)C(=O)N(C3CCC(=O)NC3=O)C4=O)C2)cc1)c1ccc(OCc2ccnc(N3CC4(COC4)C3)n2)cc1 (centres unmarked) [Example 494, 5-((3-((4-(2-(4-((2-(2-oxa-6-azaspiro[3.3]heptan-6-yl)pyrimidin-4-yl)methoxy)phenyl)propan-2-yl)phenyl)amino)cyclobutyl)amino)-2-(2,6-dioxopiperidin-3-yl)isoindolin-1,3-dione] | 7 | < 10 | 
CC(C)(c1ccc(OCc2ccnc(N3CC4(CCOC4)C3)n2)cc1)c1ccc(O[C@H]2C[C@@H](Nc3ccc4c(c3)C(=O)N(C3CCC(=O)NC3=O)C4=O)C2)cc1 (some centres unmarked) [Example 88, 5-(((1s,3s)-3-(4-(2-(4-((2-(6-oxa-2-azaspiro[3.4]octan-2-yl)pyrimidin-4-yl)methoxy)phenyl)propan-2-yl)phenoxy)cyclobutyl)amino)-2-(2,6-dioxopiperidin-3-yl)isoindolin-1,3-dione] | 15 | < 10 | 
Cc1nc(COc2ccc(C(C)(C)c3ccc(OCCCNc4ccc5c(c4)C(=O)N(C4CCC(=O)NC4=O)C5=O)cc3)cc2)cs1 (centres unmarked) [Example 225, 2-(2,6-dioxopiperidin-3-yl)-5-((3-(4-(2-(4-((2-methylthiazol-4-yl)methoxy)phenyl)propan-2-yl)phenoxy)propyl)amino)isoindolin-1,3-dione] | 60 | 11 to 100 | 
O=C1CCC(N2C(=O)c3ccc(NC4CC(Oc5ccc(C6(c7ccc(OCc8ccnc(N9CC%10(COC%10)C9)n8)cc7)CCC6)cc5)C4)cc3C2=O)C(=O)N1 (centres unmarked) [Example 356, 5-((3-(4-(1-(4-((2-(2-oxa-6-azaspiro[3.3]heptane-6-yl)pyrimidin-4-yl)methoxy)phenyl)cyclobutyl)phenoxy)cyclobutyl)amino)-2-(2,6-dioxopiperidin-3-yl)isoindolin-1,3-dione] | 16 | < 10 | 
CC(C)(c1ccc(Oc2nccc(-n3nccn3)n2)cc1)c1ccc(O[C@H]2C[C@H](Nc3ccc4c(c3)C(=O)N(C3CCC(=O)NC3=O)C4=O)C2)cc1 (some centres unmarked) [Example 170, 5-(((1r,3r)-3-(4-(2-(4-((4-(2H-1,2,3-triazol-2-yl)pyrimidin-2-yl)oxy)phenyl)propan-2-yl)phenoxy)cyclobutyl)amino)-2-(2,6-dioxopiperidin-3-yl)isoindol-1,3-dione] | 9 | < 10 | 
CC(=O)c1nccc(COc2ccc(C(C)(C)c3ccc(OC[C@H](CCCl)Nc4ccc5c(c4)C(=O)N(C4CCC(=O)NC4=O)C5=O)cc3)cc2)n1 (some centres unmarked) [Example 306] | 13 | < 10 | 
Cc1nnc(Oc2ccc(C(C)(C)c3ccc(O[C@H]4C[C@H](Nc5ccc6c(c5)C(=O)N(C5CCC(=O)NC5=O)C6=O)C4)cc3)cc2)o1 (some centres unmarked) [Example 429, 2-(2,6-dioxopiperidin-3-yl)-5-((1r,3r)-3-(4-(2-(4-((5-methyl-1,3,4-oxadiazol-2-yl)oxy)phenyl)propan-2-yl)phenoxy)cyclobutyl)aminoisoindol-1,3-dione] | 9 | < 10 | 
CCC(O)c1ncc(Oc2ccc(C(C)(C)c3ccc(O[C@H]4C[C@H](Nc5ccc6c(c5)C(=O)N(C5CCC(=O)NC5=O)C6=O)C4)cc3)cc2)cn1 (some centres unmarked) [Example 428] | 6 | < 10 | 
CC(C)(c1ccc(OCc2ccnc(N3CCC[C@@H](O)C3)n2)cc1)c1ccc(O[C@H]2C[C@@H](Nc3ccc4c(c3)C(=O)N(C3CCC(=O)NC3=O)C4=O)C2)cc1 (some centres unmarked) [Example 397] | 13 | < 10 | 
CC(C)(c1ccc(Oc2cnc(-n3nccn3)cn2)cc1)c1ccc(O[C@H]2C[C@H](Nc3ccc4c(c3)C(=O)N(C3CCC(=O)NC3=O)C4=O)C2)cc1 (some centres unmarked) [Example 583] | 10 | 11 to 100 | 
Cc1nc(-c2cnc(Oc3ccc(C4(c5ccc(O[C@H]6C[C@H](Nc7ccc8c(c7)C(=O)N(C7CCC(=O)NC7=O)C8=O)C6)cc5)CCCC4)cc3)cn2)no1 (some centres unmarked) [Example 601] | 11 | < 10 | 
CC(C)(c1ccc(OCc2ccnc(C#N)n2)cc1)c1ccc(O[C@H]2C[C@@H](Nc3ccc4c(c3)C(=O)N(C3CCC(=O)NC3=O)C4=O)C2)cc1 (some centres unmarked) [Example 277, 4-((4-(2-(4-((1s,3s)-3-((2-(2,6-dioxopiperidin-3-yl)-1,3-dioxoisoindolin-5-yl)amino)cyclobutyloxy)phenyl)propan-2-yl)phenoxy)methyl)pyrimidin-2-carbonitrile] | 5 | < 10 | 
CNC(=O)c1ncc(Oc2ccc(C(C)(C)c3ccc(O[C@H]4C[C@H](Nc5ccc6c(c5)C(=O)N(C5CCC(=O)NC5=O)C6=O)C4)cc3)cc2)cn1 (some centres unmarked) [Example 432] | 7 | < 10 | 
CCC(CC)(c1ccc(Oc2cnc(C(C)=O)nc2)cc1)c1ccc(O[C@H]2C[C@H](Nc3ccc4c(c3)C(=O)N(C3CCC(=O)NC3=O)C4=O)C2)cc1 (some centres unmarked) [Example 132] | 5 | < 10 | 
CC(C)(c1ccc(Oc2cnc(C(N)=O)nc2)cc1)c1ccc(O[C@H]2C[C@H](Nc3ccc4c(c3)C(=O)N(C3CCC(=O)NC3=O)C4=O)C2)cc1 (some centres unmarked) [Example 265, 5-(4-(2-(4-((1r,3r)-3-((2-(2,6-dioxopiperidin-3-yl)-1,3-dioxoisoindolin-5-yl)amino)cyclobutyloxy)phenyl)propan-2-yl)phenoxy)pyrimidin-2-carbonylamine] | 4 | < 10 | 
Cn1cc(-c2nccc(COc3ccc(C(C)(C)c4ccc(O[C@H]5C[C@@H](Nc6ccc7c(c6)C(=O)N(C6CCC(=O)NC6=O)C7=O)C5)cc4)cc3)n2)cn1 (some centres unmarked) [Example 270] | 10 | < 10 | 
CC(=O)c1ncc(Oc2ccc(C3(c4ccc(O[C@H]5C[C@H](Nc6ccc7c(c6)C(=O)N(C6CCC(=O)NC6=O)C7=O)C5)cc4)CCCC3)cc2)cn1 (some centres unmarked) [Example 135] | 2 | < 10 | 
CCC(CC)(c1ccc(Oc2cnc(C(C)O)nc2)cc1)c1ccc(O[C@H]2C[C@@H](Nc3ccc4c(c3)C(=O)N(C3CCC(=O)NC3=O)C4=O)C2)cc1 (some centres unmarked) [Example 133] |  | < 10 | 9
CC(C)C(O)c1ncc(Oc2ccc(C(C)(C)c3ccc(O[C@H]4C[C@H](Nc5ccc6c(c5)C(=O)N(C5CCC(=O)NC5=O)C6=O)C4)cc3)cc2)cn1 (some centres unmarked) [Example 290] | 7 | < 10 | 
CC(C)(c1ccc(OCCCNc2ccc3c(c2)C(=O)N(C2CCC(=O)NC2=O)C3=O)cc1)c1ccc(OCc2ccnc(OC3CC3)n2)cc1 (centres unmarked) [Example 70, 5-((3-(4-(2-(4-((2-cyclopropyloxypyrimidin-4-yl)methoxy)phenyl)propan-2-yl)phenoxy)propyl)amino)-2-(2,6-dioxopiperidin-3-yl)isoindolin-1,3-dione] | 30 | 11 to 100 | 
CC(C)(c1ccc(Oc2nccc(N3CC4(COC4)C3)n2)cc1)c1ccc(O[C@H]2C[C@@H](Nc3ccc4c(c3)C(=O)N(C3CCC(=O)NC3=O)C4=O)C2)cc1 (some centres unmarked) [Example 155] | 39 | < 10 | 
